Assay results: patent US11708562B2, “Differentiation of human embryonic stem cells” (Janssen Biotech, Inc., priority 2006, dated 2023)

Test system: H9P33, H9P44 and H9P48 cells
Test: Microarray analysis of definitive endoderm on MEFs vs MATRIGEL +/- Wnt-3A (Table VI)
Settings: DE treatment in low serum, on MATRIGEL
Protocol: Controls for each group included cells plated on […]-coated dishes and cultured in MEF-conditioned medium or cells plated on MEFs and cultured in ES medium. All groups contained three biological replicates and each biological replicate was repeated on two separate gene chips.
Sample preparation, hybridization, and image analysis were performed according to the Affymetrix Human Genome U133 Plus 2.0 Array. Following normalization and a log transformation, data analysis was performed using OmniViz® software (MA) and […] (VizXLabs, WA). Significant differences in gene expression between the samples were evaluated using analysis of variance and an F-test with adjusted P-value (Benjamini and Hochberg correction) of ≤0.05. Only genes with a present call in at least one group were included in the analysis.

Which results are given for “Activin A: a member of the TGFβ superfamily; growth factor (R&D Systems) used to differentiate human embryonic stem cells”?
mean normalized intensity (log format), 6-phosphofructo-2-kinasefructose-2,6-biphosphatase 4: −0.2429; mean normalized intensity (log format), Cluster Incl. AB028021: Homo sapiens HNF-3beta mRNA for hepatocyte nuclear factor-3 beta: −1.5339; mean normalized intensity (log format), ESTs: −3.574; mean normalized intensity (log format), ESTs, Highly similar to IHH_HUMAN INDIAN HEDGEHOG PROTEIN PRECURSOR (H. sapiens): −0.654; mean normalized intensity (log format), ESTs, Moderately similar to JE0284 Mm-1 cell derived transplantability-associated protein 1b (H. sapiens): −2.377; mean normalized intensity (log format), ESTs, Weakly similar to FCE2 MOUSE LOW AFFINITY IMMUNOGLOBULIN EPSILON FC RECEPTOR (M. musculus): 0.4942; mean normalized intensity (log format), ESTs, Weakly similar to the 331st table hypothetical protein KIAA0555 (H. sapiens): −1.574; mean normalized intensity (log format), G protein-coupled receptor: 1.507; mean normalized intensity (log format), G protein-coupled receptor 49: 0.2655; mean normalized intensity (log format), Homo sapiens HNF-3beta mRNA for hepatocyte nuclear factor-3 beta: −2.718; mean normalized intensity (log format), Homo sapiens KIAA0878 protein (KIAA0878), mRNA: 2.0265; mean normalized intensity (log format), Homo sapiens Kell blood group (KEL), mRNA: −2.205; mean normalized intensity (log format), Homo sapiens MLL septin-like fusion (MSF), mRNA: −3.292; mean normalized intensity (log format), Homo sapiens Mix-like homeobox protein 1 (MILD1) mRNA: −1.546; mean normalized intensity (log format), Homo sapiens Rho GTPase activating protein 6 (ARHGAP6), transcript variant 2, mRNA: −1.104; mean normalized intensity (log format), Homo sapiens TBX3-iso protein (TBX3-iso), mRNA: −2.346; mean normalized intensity (log format), Homo sapiens angiopoietin 2 (ANGPT2), mRNA: −2.93; mean normalized intensity (log format), Homo sapiens ankyrin-like with transmembrane domains 1 (ANKTM1), mRNA: −1.109; mean normalized intensity (log format), Homo sapiens apolipoprotein A-I (APOA1), mRNA: −1.471; mean normalized intensity (log format), Homo sapiens apolipoprotein A-II (APOA2), mRNA: −1.033; mean normalized intensity (log format), Homo sapiens arylsulfatase E (chondrodysplasia punctata 1) (ARSE), mRNA: 0.283; mean normalized intensity (log format), Homo sapiens atrophin-1 interacting protein 1; activin receptor interacting protein 1 (KIAA0705), mRNA: −4.308; mean normalized intensity (log format), Homo sapiens beta-site APP cleaving enzyme (BACE) mRNA: −2.0354; mean normalized intensity (log format), Homo sapiens cDNA FLJ11550 fis, clone HEMBA1002970: −1.222; mean normalized intensity (log format), Homo sapiens cDNA FLJ12993 fis, clone NT2RP3000197: 0.1473; mean normalized intensity (log format), Homo sapiens cDNA FLJ13221 fis, clone NT2RP4002075: 0.3557; mean normalized intensity (log format), Homo sapiens cardiac ventricular troponin C mRNA: −0.5497; mean normalized intensity (log format), Homo sapiens cartilage linking protein 1 (CRTL1), mRNA: −1.315; mean normalized intensity (log format), Homo sapiens cell adhesion molecule with homology to L1CAM (close homologue of L1) (CHL1), mRNA: −0.5412; mean normalized intensity (log format), Homo sapiens chromosome 19, cosmid R31181: −0.2589; mean normalized intensity (log format), Homo sapiens clone 23736 mRNA sequence: −0.04718; mean normalized intensity (log format), Homo sapiens cryptic mRNA, complete cds: 0.1049; mean normalized intensity (log format), Homo sapiens cystatin S (CST4), mRNA: 0.9245; mean normalized intensity (log format), Homo sapiens cystatin SA (CST2), mRNA: −0.1022; mean normalized intensity (log format), Homo sapiens cystatin SN (CST1), mRNA: 0.07293; mean normalized intensity (log format), Homo sapiens cytidine deaminase (CDA), mRNA: −3.891; mean normalized intensity (log format), Homo sapiens dual specificity phosphatase 4 (DUSP4), mRNA: 0.9539; mean normalized intensity (log format), Homo sapiens fibroblast growth factor 8 (androgen-induced) (FGF8), mRNA: −4.328; mean normalized intensity (log format), Homo sapiens fibroblast growth factor 17 (FGF17), mRNA: −0.8946; mean normalized intensity (log format), Homo sapiens frizzled-related protein (FRZB), mRNA: 0.565; mean normalized intensity (log format), Homo sapiens gastrin-releasing peptide (GRP), mRNA: −2.741; mean normalized intensity (log format), Homo sapiens glycophorin B (includes Ss blood group) (GYPB), mRNA: −0.9473; mean normalized intensity (log format), Homo sapiens glycophorin E (GYPE), mRNA: −2.016; mean normalized intensity (log format), Homo sapiens glycophorin Erik STA (GPErik) gene: −1.194; mean normalized intensity (log format), Homo sapiens growth differentiation factor 3 (GDF3), mRNA: 1.673; mean normalized intensity (log format), Homo sapiens haptoglobin (HP), mRNA: −1.101; mean normalized intensity (log format), Homo sapiens haptoglobin-related protein (HPR), mRNA: −2.6068; mean normalized intensity (log format), Homo sapiens homeobox protein goosecoid mRNA, complete cds: −4.42; mean normalized intensity (log format), Homo sapiens hypothetical protein FLJ10718 (FLJ10718), mRNA: 2.605; mean normalized intensity (log format), Homo sapiens hypothetical protein FLJ10970 (FLJ10970), mRNA: −0.432; mean normalized intensity (log format), Homo sapiens hypothetical protein FLJ11316 (FLJ11316), mRNA: −0.9047; mean normalized intensity (log format), Homo sapiens hypothetical protein FLJ22252 similar to SRY-box containing gene 17 (FLJ22252), mRNA: 1.368; mean normalized intensity (log format), Homo sapiens hypothetical protein FLJ23403 (FLJ23403), mRNA: −1.485; mean normalized intensity (log format), Homo sapiens lumican (LUM), mRNA: −4.057; mean normalized intensity (log format), Homo sapiens mRNA for GATA-6, complete cds: 2.219; mean normalized intensity (log format), Homo sapiens mRNA for KIAA1409 protein, partial cds: 0.3683; mean normalized intensity (log format), Homo sapiens mRNA; cDNA DKFZp434D0818 (from clone DKFZp434D0818): −2.634; mean normalized intensity (log format), Homo sapiens mRNA; cDNA DKFZp586J0624 (from clone DKFZp586J0624): −0.8352; mean normalized intensity (log format), Homo sapiens matrix metalloproteinase 14 (membrane-inserted) (MMP14), mRNA: −0.7235; mean normalized intensity (log format), Homo sapiens phorbolin-like protein MDS019 (MDS019), mRNA: −1.119; mean normalized intensity (log format), Homo sapiens presenilin stabilization factor b (PSF) mRNA: −0.8617; mean normalized intensity (log format), Homo sapiens reserved (KCNK12), mRNA: −0.4687; mean normalized intensity (log format), Homo sapiens retinoid X receptor, gamma (RXRG), mRNA: −2.375; mean normalized intensity (log format), Homo sapiens sema domain, immunoglobulin domain (Ig), short basic domain, secreted, (semaphorin) 3E (SEMA3E), mRNA: −0.786; mean normalized intensity (log format), Homo sapiens sema domain, seven thrombospondin repeats, (semaphorin) 5A (SEMA5A), mRNA: −1.533; mean normalized intensity (log format), Homo sapiens solute carrier family 16 (monocarboxylic acid transporters), member 3 (SLC16A3), mRNA: 0.7103; mean normalized intensity (log format), Homo sapiens solute carrier family 21 (prostaglandin transporter), member 2 (SLC21A2), mRNA: 0.7114; mean normalized intensity (log format), Homo sapiens type VI collagen alpha 2 chain precursor (COL6A2) mRNA: 1.7011; mean normalized intensity (log format), Homo sapiens, alpha-1 (VI) collagen: −3.662; mean normalized intensity (log format), Homo sapiens, clone MGC: 4655, mRNA: 2.3772; mean normalized intensity (log format), Human (clone 8B1) Br-cadherin mRNA: −2.179
